According to US7560458B2, “Triazolopyrimidine derivatives as glycogen synthase kinase 3 inhibitors” (Janssen Pharmaceutica, N.V., priority 2003, dated 2009):

Tests used:
GSK3alpha = GSK3alpha (Homo sapiens, UniProt P49840); test: GSK3alpha assay (same as the GSK3beta assay, GSK3alpha 0.25 ng/μl); format: biochemical; conditions: −log IC50 (M); given as ranges (>8; 7-8; <7); read-out: pIC50 (GSK3alpha) (converted)
Procedure, shortened: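 GSK3α at 0.25 ng/μl phosphorylated 5 μM biotinylated phospho-CREB peptide with 1 μM ATP and 33P-ATP for 1 h at room temperature, in 25 mM Tris pH 7.4 with 10 mM MgCl2 and 1 mM DTT. Phosphorylated peptide was captured on streptavidin SPA beads and counted. IC50 was taken from dose-response curves.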

GSK3β = GSK3β (Homo sapiens, UniProt P49841); test: GSK3beta assay (SPA, biotinylated phosphorylated CREB peptide, ATP-P33); format: biochemical; conditions: −log IC50 (M); given as ranges (>8; 7-8; <7); read-out: pIC50 (GSK3beta) (converted)
Procedure, shortened: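 Radiometric SPA at room temperature, pH 7.4 Tris/MgCl2/DTT/BSA/glycerol, with 5.7 ng/μl GSK3β, 5 μM biotinylated phospho-CREB peptide, 1 μM ATP plus 33P-ATP for 1 h. Stopped with streptavidin SPA beads, counted after overnight settling; % inhibition versus no-compound control, IC50 from dose-response curve.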

GSK3alpha, sequence (P49840 whole entry, species assumed): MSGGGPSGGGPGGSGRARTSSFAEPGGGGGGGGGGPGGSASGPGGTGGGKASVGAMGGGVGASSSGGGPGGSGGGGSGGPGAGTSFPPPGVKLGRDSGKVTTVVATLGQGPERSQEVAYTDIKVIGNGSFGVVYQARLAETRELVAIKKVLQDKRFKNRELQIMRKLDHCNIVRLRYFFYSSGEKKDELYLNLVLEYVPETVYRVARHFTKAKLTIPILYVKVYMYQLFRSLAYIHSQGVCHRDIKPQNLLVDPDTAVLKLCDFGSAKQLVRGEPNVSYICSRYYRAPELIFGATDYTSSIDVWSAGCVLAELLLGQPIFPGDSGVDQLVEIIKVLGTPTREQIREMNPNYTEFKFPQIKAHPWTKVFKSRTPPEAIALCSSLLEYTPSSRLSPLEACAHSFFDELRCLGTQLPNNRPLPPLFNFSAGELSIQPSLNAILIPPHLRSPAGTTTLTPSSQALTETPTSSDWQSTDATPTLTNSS
GSK3β, sequence (P49841 whole entry, species assumed): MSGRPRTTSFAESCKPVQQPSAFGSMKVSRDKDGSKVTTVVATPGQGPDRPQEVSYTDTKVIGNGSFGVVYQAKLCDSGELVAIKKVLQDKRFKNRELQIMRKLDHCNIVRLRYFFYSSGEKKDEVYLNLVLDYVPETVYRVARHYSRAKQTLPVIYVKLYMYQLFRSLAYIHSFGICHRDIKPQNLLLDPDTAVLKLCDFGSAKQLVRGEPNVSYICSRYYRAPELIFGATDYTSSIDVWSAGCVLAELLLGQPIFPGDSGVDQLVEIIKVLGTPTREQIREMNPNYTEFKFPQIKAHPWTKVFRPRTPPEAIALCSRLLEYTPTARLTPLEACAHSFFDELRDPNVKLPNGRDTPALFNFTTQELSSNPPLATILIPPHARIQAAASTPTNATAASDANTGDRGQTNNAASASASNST

Row | SMILES | IC50 (GSK3alpha) [M] | IC50 (GSK3β) [M]
1 | CNC(=O)c1cccc(Nc2ncc3nnn(-c4cccc(F)c4)c3n2)c1 [Compound 24] | < 1e-08 | < 1e-08
2 | COCCOCc1cccc(-n2nnc3cnc(Nc4ccc(Cl)cc4)nc32)c1 [Compound 336] | < 1e-08 | < 1e-08
3 | NS(=O)(=O)c1ccc(Nc2ncc3nnn(-c4ccccc4)c3n2)cc1 [Compound 37] | < 1e-08 | < 1e-08
4 | CC(=O)NCc1cccc(-n2nnc3cnc(Nc4cccc(S(=O)(=O)NCCO)c4)nc32)c1 [Compound 131] | 1e-08 to 1e-07 | 1e-08 to 1e-07
5 | CCOC(=O)NCc1cccc(-n2nnc3cnc(Nc4ccc(OC)nc4)nc32)c1 [Compound 221] | < 1e-08 | < 1e-08
6 | COCC(=O)NCc1cccc(-n2nnc3cnc(Nc4ccc(S(N)(=O)=O)cc4)nc32)c1 [Compound 174] | < 1e-08 | < 1e-08
7 | CCOC(=O)NCc1cccc(-n2nnc3cnc(Nc4ccc(CC(=O)O)cc4)nc32)c1 [Compound 219] | < 1e-08 | < 1e-08
8 | CC(C)CC(=O)NCc1cccc(-n2nnc3cnc(Nc4ccc(S(N)(=O)=O)cc4)nc32)c1 [Compound 197] | < 1e-08 | < 1e-08
9 | COc1ccc(Nc2ncc3nnn(-c4cccc(CNC(=O)C5CC5)c4)c3n2)cn1 [Compound 209] | 1e-08 to 1e-07 | 1e-08 to 1e-07
10 | COC(=O)c1cc(Nc2ncc3nnn(-c4cccc(F)c4)c3n2)ccc1NC(C)=O [Compound 104] | < 1e-08 | < 1e-08
11 | CCOC(=O)NCc1cccc(-n2nnc3cnc(Nc4ccc(CCO)cc4)nc32)c1 [Compound 220] | < 1e-08 | < 1e-08
12 | CNC(=O)c1ccc(Nc2ncc3nnn(-c4cccc(CC#N)c4)c3n2)cc1 [Compound 331] | 1e-08 to 1e-07 | 1e-08 to 1e-07
13 | COCc1cccc(-n2nnc3cnc(Nc4cccc(S(=O)(=O)NCC(N)=O)c4)nc32)c1 [Compound 141] | 1e-08 to 1e-07 | 1e-08 to 1e-07
14 | NCc1ccc(Nc2ncc3nnn(-c4cccc(CCO)c4)c3n2)cc1 [Compound 310] | < 1e-08 | < 1e-08
15 | OCCc1cccc(-n2nnc3cnc(Nc4ccc(F)cc4)nc32)c1 [Compound 261] | < 1e-08 | < 1e-08
16 | COc1ccc(Nc2ncc3nnn(-c4cccc(CCO)c4)c3n2)cn1 [Compound 173] | < 1e-08 | < 1e-08
17 | CC(C)CC(=O)NCc1cccc(-n2nnc3cnc(Nc4ccc(C(=O)O)cc4)nc32)c1 [Compound 193] | 1e-08 to 1e-07 | 1e-08 to 1e-07
18 | N#Cc1cccc(Nc2ncc3nnn(-c4cccc(CCO)c4)c3n2)c1 [Compound 258] | < 1e-08 | < 1e-08
19 | COc1cccc(-n2nnc3cnc(Nc4cccc(S(N)(=O)=O)c4)nc32)c1 [Compound 35] | < 1e-08 | < 1e-08
20 | COC(=O)c1cc(Nc2ncc3nnn(-c4cccc(F)c4)c3n2)ccc1N [Compound 134] | < 1e-08 | < 1e-08
21 | O=C(O)c1cc(Nc2ncc3nnn(-c4cccc(F)c4)c3n2)ccc1O [Compound 71] | < 1e-08 | 1e-08 to 1e-07
22 | N#CCc1cccc(-n2nnc3cnc(Nc4cccc(CO)c4)nc32)c1 [Compound 277] | < 1e-08 | < 1e-08

Row | SMILES | IC50 (GSK3alpha) [M] | IC50 (GSK3β) [M]
23 | COCc1cccc(-n2nnc3cnc(Nc4cccc(NC(C)=O)c4)nc32)c1 [Compound 81] | < 1e-08 | < 1e-08
24 | Fc1cccc(-n2nnc3cnc(Nc4cccc(OC(F)(F)F)c4)nc32)c1 [Compound 22] | < 1e-08 | < 1e-08
25 | COC(=O)c1cccc(-n2nnc3cnc(Nc4cccc(CNC(C)=O)c4)nc32)c1 [Compound 74] | < 1e-08 | 1e-08
26 | COCc1cccc(-n2nnc3cnc(Nc4ccc(CCO)cc4)nc32)c1 [Compound 139] | < 1e-08 | < 1e-08
27 | CC(=O)N(C)c1ccc(Nc2ncc3nnn(-c4cccc(F)c4)c3n2)cc1 [Compound 135] | < 1e-08 | < 1e-08
28 | COCc1cccc(Nc2ncc3nnn(-c4ccccc4)c3n2)c1 [Compound 61] | < 1e-08 | < 1e-08
29 | O=C(NCc1cccc(-n2nnc3cnc(Nc4ccc(CCO)cc4)nc32)c1)C1CC1 [Compound 208] | < 1e-08 | < 1e-08
30 | CC(=O)NCc1cccc(-n2nnc3cnc(Nc4cccc(CO)c4)nc32)c1 [Compound 110] | < 1e-08 | < 1e-08
31 | N#CCc1cccc(-n2nnc3cnc(Nc4ccc(C(N)=O)cc4)nc32)c1 [Compound 274] | < 1e-08 | < 1e-08
32 | O=C(O)c1ccc(Nc2ncc3nnn(-c4cccc(CNC(=O)C5CC5)c4)c3n2)cc1Cl [Compound 212] | < 1e-08 | < 1e-08
33 | CC(=O)NCc1cccc(-n2nnc3cnc(Nc4ccc(C(=O)O)cc4)nc32)c1 [Compound 126] | < 1e-08 | < 1e-08
34 | Fc1cccc(Nc2ncc3nnn(-c4cccc(F)c4)c3n2)c1 [Compound 17] | < 1e-08 | 1e-08 to 1e-07
35 | CC(C)CC(=O)NCc1cccc(-n2nnc3cnc(Nc4ccc(CCO)cc4)nc32)c1 [Compound 195] | < 1e-08 | 1e-08 to 1e-07
36 | CC(C)CC(=O)NCc1cccc(-n2nnc3cnc(Nc4ccc(CC(=O)O)cc4)nc32)c1 [Compound 194] | < 1e-08 | 1e-08 to 1e-07
37 | COCCOc1cccc(-n2nnc3cnc(Nc4ccc(F)cc4)nc32)c1 [Compound 301] | < 1e-08 | 1e-08 to 1e-07
38 | O=C(O)c1ccc(Nc2ncc3nnn(-c4cccc(CNC(=O)C56CC7CC(CC(C7)C5)C6)c4)c3n2)cc1 [Compound 239] | 1e-08 | 1e-08 to 1e-07
39 | O=C(O)c1ccc(Nc2ncc3nnn(-c4cccc(C(=O)NCCO)c4)c3n2)cc1 [Compound 247] | < 1e-08 | 1e-08 to 1e-07
40 | Cn1ccnc1-c1cccc(-n2nnc3cnc(Nc4cccc(C#N)c4)nc32)c1 [Compound 4] | 1e-08 to 1e-07 | < 1e-08
41 | CC(C)(C)OC(=O)NCc1cccc(-n2nnc3cnc(Nc4ccc(F)cc4)nc32)c1 [Compound 270] | < 1e-08 | < 1e-08
42 | CS(=O)(=O)Nc1cccc(Nc2ncc3nnn(-c4cccc(CNC(=O)C5CC5)c4)c3n2)c1 [Compound 202] | < 1e-08 | < 1e-08
43 | CNC(=O)c1ccc(Nc2ncc3nnn(-c4cccc(COCCOC)c4)c3n2)cc1 [Compound 327] | < 1e-08 | < 1e-08
44 | Oc1cccc(Nc2ncc3nnn(-c4cccc(F)c4)c3n2)c1 [Compound 15] | < 1e-08 | 1e-08

Row | SMILES | IC50 (GSK3alpha) [M] | IC50 (GSK3β) [M]
45 | CC(=O)NCc1cccc(-n2nnc3cnc(Nc4cccc(S(N)(=O)=O)c4)nc32)c1 [Compound 112] | < 1e-08 | < 1e-08
46 | Fc1cccc(-n2nnc3cnc(Nc4ccc(CNCC(F)(F)F)cc4)nc32)c1 [Compound 306] | < 1e-08 | < 1e-08
47 | CC(=O)NCCNS(=O)(=O)c1cccc(Nc2ncc3nnn(-c4cccc(F)c4)c3n2)c1 [Compound 102] | < 1e-08 | < 1e-08
48 | CN(C)C(=O)c1cccc(Nc2ncc3nnn(-c4cccc(F)c4)c3n2)c1 [Compound 100] | < 1e-08 | < 1e-08
49 | N#CCc1cccc(-n2nnc3cnc(Nc4ccc(F)cc4)nc32)c1 [Compound 265] | < 1e-08 | < 1e-08
50 | COCCOc1cccc(-n2nnc3cnc(Nc4ccc(CNCC(F)(F)F)cc4)nc32)c1 [Compound 312] | < 1e-08 | 1e-08 to 1e-07
51 | NCc1cccc(-n2nnc3cnc(Nc4ccc(F)cc4)nc32)c1 [Compound 279] | 1e-08 to 1e-07 | 1e-08 to 1e-07
52 | O=C(O)c1ccc(Nc2ncc3nnn(-c4cccc(F)c4)c3n2)cc1Cl [Compound 137] | < 1e-08 | < 1e-08
53 | O=S(=O)(NCCO)c1cccc(Nc2ncc3nnn(-c4cccc(F)c4)c3n2)c1 [Compound 88] | < 1e-08 | < 1e-08
54 | COCc1cccc(-n2nnc3cnc(Nc4cccc(CO)c4)nc32)c1 [Compound 144] | < 1e-08 | < 1e-08
55 | COCCNC(=O)c1cccc(Nc2ncc3nnn(-c4cccc(F)c4)c3n2)c1 [Compound 90] | < 1e-08 | < 1e-08
56 | COc1cccc(-n2nnc3cnc(Nc4ccc(O)c(C(=O)O)c4)nc32)c1 [Compound 72] | < 1e-08 | 1e-08 to 1e-07
57 | COCc1cccc(-n2nnc3cnc(Nc4cccc(S(=O)(=O)NCCNC(C)=O)c4)nc32)c1 [Compound 154] | 1e-08 to 1e-07 | 1e-08 to 1e-07
58 | COCCOCc1cccc(-n2nnc3cnc(Nc4ccc(CCO)cc4)nc32)c1 [Compound 289] | < 1e-08 | < 1e-08
59 | CNC(=O)c1ccc(Nc2ncc3nnn(-c4cccc(F)c4)c3n2)cc1 [Compound 308] | < 1e-08 | < 1e-08
60 | NS(=O)(=O)c1ccc(Nc2ncc3nnn(-c4cccc(CC(=O)O)c4)c3n2)cc1 [Compound 160] | 1e-08 to 1e-07 | 1e-08 to 1e-07
61 | COCc1cccc(Nc2ncc3nnn(-c4cccc(F)c4)c3n2)c1 [Compound 56] | < 1e-08 | < 1e-08
62 | CNC(=O)c1ccc(Nc2ncc3nnn(-c4cccc(COC)c4)c3n2)cc1 [Compound 333] | < 1e-08 | < 1e-08
63 | O=C(NCCO)c1cccc(Nc2ncc3nnn(-c4cccc(CNC(=O)C5CC5)c4)c3n2)c1 [Compound 200] | < 1e-08 | 1e-08 to 1e-07
64 | COc1cc(Nc2ncc3nnn(-c4cccc(CCO)c4)c3n2)ccc1F [Compound 171] | < 1e-08 | < 1e-08
65 | N#Cc1cccc(Nc2ncc3nnn(-c4ccccc4)c3n2)c1 [Compound 34] | < 1e-08 | < 1e-08
